Laboratory results as given in PubChem BioAssay (NCI).
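Protocol summary: plate cells (96-well), add compound at 5 concentrations, incubate 48 h, interpolate endpoints linearly. Definition used: TGI = concentration required for complete inhibition of growth.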

Columns and labels:
Assay in all cases: growth of human tumour cells (NCI), 48 h
A549 NSCLC = system: A549 NSCLC
EKVX NSCLC = system: EKVX NSCLC
786-0 renal = system: 786-0 renal
M14 melanoma = system: M14 melanoma
TK-10 renal = system: TK-10 renal
RXF-631 renal = system: RXF-631 renal
SW-620 colon = system: SW-620 colon
HT29 colon = system: HT29 colon
RPMI-8226 leukemia = system: RPMI-8226 leukemia
SNB-75 CNS = system: SNB-75 CNS
SK-MEL-5 melanoma = system: SK-MEL-5 melanoma
CCRF-CEM leukemia = system: CCRF-CEM leukemia
UO-31 renal = system: UO-31 renal
SK-OV-3 ovarian = system: SK-OV-3 ovarian
UACC-257 melanoma = system: UACC-257 melanoma
A498 renal = system: A498 renal
SNB-19 CNS = system: SNB-19 CNS
MALME-3M melanoma = system: MALME-3M melanoma
CAKI-1 renal = system: CAKI-1 renal
HOP-62 NSCLC = system: HOP-62 NSCLC
SK-MEL-2 melanoma = system: SK-MEL-2 melanoma
K-562 leukemia = system: K-562 leukemia
ACHN renal = system: ACHN renal
HCC-2998 colon = system: HCC-2998 colon
SNB-78 CNS = system: SNB-78 CNS
M19-MEL melanoma = system: M19-MEL melanoma
NCI-H23 lung = system: NCI-H23 lung
SN12C renal = system: SN12C renal
OVCAR-5 ovarian = system: OVCAR-5 ovarian
KM20L2 colon = system: KM20L2 colon
NCI-H460 lung = system: NCI-H460 lung
SF-539 CNS = system: SF-539 CNS
DMS 114 small cell lung = system: DMS 114 small cell lung
LOX IMVI melanoma = system: LOX IMVI melanoma
SR leukemia = system: SR leukemia
UACC-62 melanoma = system: UACC-62 melanoma
SF-295 CNS = system: SF-295 CNS
IGROV1 ovarian = system: IGROV1 ovarian
MOLT-4 leukemia = system: MOLT-4 leukemia
OVCAR-8 ovarian = system: OVCAR-8 ovarian
SF-268 CNS = system: SF-268 CNS
HCT-15 colon = system: HCT-15 colon
DLD-1 colon = system: DLD-1 colon
HOP-18 NSCLC = system: HOP-18 NSCLC
HL-60(TB) leukemia = system: HL-60(TB) leukemia
XF 498 CNS = system: XF 498 CNS
DMS 273 small cell lung = system: DMS 273 small cell lung
LXFL 529 NSCLC = system: LXFL 529 NSCLC
SK-MEL-28 melanoma = system: SK-MEL-28 melanoma
RXF 393 renal = system: RXF 393 renal
U251 CNS = system: U251 CNS
OVCAR-4 ovarian = system: OVCAR-4 ovarian
KM12 colon = system: KM12 colon
HCT-116 colon = system: HCT-116 colon

CSc1ccc(Cc2cc(C(C)(C)C)cc(C(C)(C)C)c2O)cc1
TGI (A549 NSCLC): 27.3 µM
TGI (EKVX NSCLC): 32.1 µM
TGI (786-0 renal): 30.4 µM
TGI (M14 melanoma): 28.6 µM
TGI (TK-10 renal): 25.7 µM
TGI (RXF-631 renal): 29.4 µM
TGI (SW-620 colon): 29.7 µM
TGI (HT29 colon): 27.5 µM
TGI (RPMI-8226 leukemia): 20.8 µM
TGI (SNB-75 CNS): 29.7 µM
TGI (SK-MEL-5 melanoma): 28.9 µM
TGI (CCRF-CEM leukemia): 40 µM
TGI (UO-31 renal): 30.7 µM
TGI (SK-OV-3 ovarian): 42.4 µM
TGI (UACC-257 melanoma): 28.2 µM
TGI (A498 renal): 29.3 µM
TGI (SNB-19 CNS): 29.9 µM
TGI (MALME-3M melanoma): 28.7 µM
TGI (CAKI-1 renal): 30.5 µM
TGI (HOP-62 NSCLC): 35 µM
TGI (SK-MEL-2 melanoma): 16.3 µM
TGI (K-562 leukemia): 26.6 µM
TGI (ACHN renal): 29 µM
TGI (HCC-2998 colon): 32.5 µM
TGI (SNB-78 CNS): 28.8 µM
TGI (M19-MEL melanoma): 31.1 µM
TGI (NCI-H23 lung): 28.7 µM
TGI (SN12C renal): 28.6 µM
TGI (OVCAR-5 ovarian): 13.2 µM
TGI (KM20L2 colon): 28.2 µM
TGI (NCI-H460 lung): 27.2 µM
TGI (SF-539 CNS): 31.8 µM
TGI (DMS 114 small cell lung): 25.7 µM
TGI (LOX IMVI melanoma): 22.4 µM
TGI (SR leukemia): 24.7 µM
TGI (UACC-62 melanoma): 29.2 µM
TGI (SF-295 CNS): 31.6 µM
TGI (IGROV1 ovarian): 26.7 µM
TGI (MOLT-4 leukemia): 23.8 µM
TGI (OVCAR-8 ovarian): 30.7 µM
TGI (SF-268 CNS): 29.7 µM
TGI (HCT-15 colon): 27.6 µM
TGI (DLD-1 colon): 27.1 µM
TGI (HOP-18 NSCLC): 33.8 µM
TGI (HL-60(TB) leukemia): 25.1 µM
TGI (XF 498 CNS): 31.8 µM
TGI (DMS 273 small cell lung): 26.7 µM
TGI (LXFL 529 NSCLC): 26.9 µM
TGI (SK-MEL-28 melanoma): 30.8 µM
TGI (RXF 393 renal): 26.3 µM
TGI (U251 CNS): 28.6 µM
TGI (OVCAR-4 ovarian): 28.9 µM
TGI (KM12 colon): 23.4 µM
TGI (HCT-116 colon): 22.7 µM
